Results taken from US10145848B2, “Small-molecule hydrophobic tagging of fusion proteins and induced degradation of same” (YALE UNIVERSITY, priority 2010, dated 2018).
Residues, ends and D or L forms follow the SMILES beside them. *: point of attachment. Cbz = O=C(OCc1ccccc1)*

Legend:
Assay type in all cases: cell-based
[1] = biological target: T1, luciferase-HaloTag fusion protein (Rhodococcus rhodochrous, UniProt P0A3G2, C176G/H272F/K175M/Y273L); assay: Luciferase assay in HEK 293T cells expressing luciferase-HaloTag; conditions: 1 μM, 24 hours
T1 construct: The HaloTag protein was obtained from pHT2 vector (Promega); luciferase (from pGL3-Basic); expressed in transfected cells
Experimental: (a) Chemical structures of the representative HaloTag Ligands: HyT5, HyT12, HyT13, HyT16, HyT21 and HyT22. (b) HEK 293T cells expressing HA-HaloTag-luciferase were treated with indicated compounds at 1 μM for 24 hours, at which point luciferase assays were performed.
Ten thousand stable HEK 293T cells infected with HA-luciferase-HaloTag were plated into each well in a 96-well plate. The next day, indicated HyT compounds were added in triplicate and the cells were cultured for another 24 hours. The cells were washed once with cold PBS and lysed in Passive Lysis Buffer (Promega). The luciferase activity was performed by Steady-Glo Luciferase Assay System (Promega) on a Wallac Victor 2 Plate Reader (Perkin Elmer) and the luciferase activity was normalized by protein concentration, as determined by the Bradford assay.
The inventors designed 21 structurally distinct scaffolds as the basis for our hydrophobic Tags (HyTs), and synthesized and tested 30 compounds across these scaffolds composed of hydrophobic moieties linked to the HaloTag haloalkane reactive linker (Table 1, FIG. 5). […]

[2] = biological target: T2, HA-EGFP-HaloTag fusion protein (Rhodococcus rhodochrous, UniProt P0A3G2, C176G/H272F/K175M/Y273L); assay: Immunoblotting of HA-EGFP-HaloTag in Flp-In 293 cells; conditions: 10 μM pretreatment 1 hour, then 1 μM HyT13, 6 hours
T2 construct: The HaloTag protein was obtained from pHT2 vector (Promega); expressed in transfected cells
Experimental: Flp-In 293 cells expressing HA-EGFP-HaloTag were treated with indicated concentrations of HyT13 for 24 hours. The lysates were probed with anti-HA and anti-β-actin antibodies, with β-actin serving as a loading control. Shown is quantification of three separate experiments, with error bars representing SEM.
Flp-In 293 cells expressing HA-EGFP-HaloTag cells were treated for the indicated times with 1 μM HyT13 and the lysates were probed with anti-HA and anti-β-actin antibodies. The rightmost sample was treated with HyT13 for 24 hours, after which HyT13-free media was provided for 24 hours. Shown is quantification of three separate experiments, with error bars representing SEM.
The indicated cells were washed twice with cold PBS and the cells were lysed in lysis buffer (1×PBS, 1% NP-40, 1 mM EDTA, 40 mM HEPES) with protease inhibitors. The lysates were cleared by centrifugation at 10,000 g for 5 min. The total protein concentration was determined by Bradford assay and 50 μg of protein was loaded onto an 8% Bis-Tris gel. To solubilize polyubiquitinated and aggregated proteins upon proteasome inhibition^42 samples generated for FIG. 12d were lysed with a SDS lysis buffer (1×PBS, 1% NP-40, 1% SDS, 1% sodium deoxycholate, 1 mM EDTA, 40 mM HEPES) with protease inhibitors. The blots were processed by standard procedures with indicated antibodies, and the band intensities were quantified by ImageJ.
As the luciferase assay relied on the loss-of-activity of the luciferase-HaloTag fusion protein, we wanted to determine whether the decrease in luciferase activity resulted from the degradation of the entire fusion protein or perhaps simply inhibition of luciferase activity. We generated a stable Flp-In 293 cell line with a single integration site containing HA-EGFP-HaloTag fusion protein, and employed this cell line to perform kinetic studies with HyT13. […] Consistent with our previous observations, treatment of these cells with 1 μM of HyT13 for 24 hours reduced the mean fluorescence intensity of cells almost 7-fold. Together, these findings provide the first experimental evidence that hydrophobic tagging represents a viable strategy for the control of protein levels.

[3] = test system: HEK293 or HeLa cells; assay: Cell viability with Resazurin (alamarBlue); conditions: indicated concentration, 24 hours
Experimental: HEK293 or HeLa cells were treated with indicated concentrations of HyT13 for 24 hours. The oxidation-reduction indicator Resazurin (alamarBlue, Invitrogen) was employed to determine cell viability.

`NCCOCCOCCOCCn1cc(CCC(=O)NCCOCCOCCOCC(=O)NCCOCCOCCCCCCCl)nn1` [HyT5, 3-(1-(2-(2-(2-(2-aminoethoxy)ethoxy)ethoxy)ethyl)-1H-1,2,3-triazol-4-yl)-N-(24-chloro-11-oxo-3,6,9,15,18-pentaoxa-12-azatetracosyl)propanamide] was tested, and the luciferase activity [1] was “did not decrease the luciferase activity”.
For `CC(C)C[C@@H](C=O)NC(=O)[C@H](CC(C)C)NC(=O)[C@H](CC(C)C)NC(=O)OCc1ccccc1` [MG132, reference compound] (Cbz-Leu-Leu-Leu-aldehyde), the “effect of proteasome inhibitor on HyT13 mediated degradation” value [2] was “blocked HyT13 mediated degradation”.
For `CC(=O)NC(CCc1ccccc1)C(=O)NC(CC(C)C)C(=O)NC(Cc1ccccc1)C(=O)NC(CC(C)C)C(=O)C1(C)CO1` (stereo not shown) [YU101, reference compound], the “effect of proteasome inhibitor on HyT13 mediated degradation” value [2] was “blocked HyT13 mediated degradation” and the “cellular toxicity (positive control)” value [3] was “toxic to cells”.
